The text below walks through data of US5723494A, “Derivatives of glutamic and aspartic acids, a method of preparing them, and their use as drugs for enhancing memory and learning” (priority 1993, dated 1998).

A short description of data set [1]: Antiamnesic activity in the mouse (step-down passive avoidance, amnesia induced by ECS). In kind it is in vivo, mouse (CD1 male). The conditions noted are these: mouse.
A short description of data set [2]: Acute toxicity (LD50) in the mouse. The conditions noted are these: in vivo.
The nature of data set [3]: Antagonism of the amnesic effect induced by scopolamine in the passive avoidance test in the rat. Type of data set: in vivo. The conditions noted are these: for % Effect vs controls / Latency (STL): FS + SCOP. Here is the method:
4) Antagonism of the amnesic effect induced by scopolamine in the "passive avoidance" test in the rat.
The shuttle box equipment was used for passive avoidance as described in Experiment 2 with the following modifications: the compounds (or physiological solutions for the control group) were administered intraperitoneally (IP) 45 min before the training, whereas scopolamine (SCOP) was administered 30 min before the training. The foot shock (FS) consisted of a 0.2 mA shock of 5 sec duration.
The retest to determine memory was executed 24 h after the training. In each individual experiment, the following groups were used: a control group (-FS), a control group (+FS), a control group (FS+SCOP), 3 treatment groups with different doses of the product under test (FS+SCOP).

Data set [4] is described as follows: Antidepressant activity in the behavioural despair test in the mouse. In kind it is in vivo, mouse (male CD1).

Entries after “also recorded” stand apart in the source; their conditions may differ.

Regarding `CC1(C)CCC(NC(=O)[C@@H](N)CCC(=O)O)CC1` [Compound 23, 1-(4,4-dimethylcyclohexyl)-L-isoglutamine[4-amino-5-(4',4'-dimethylcyclohexylamine)-5-oxopentanoic acid (S)]], the “Antiamnesic activity (in words)” value in data set [1] (OS) was “particularly remarkable”. In data set [1] (po, 0.1 mg/kg OS, retest 24 h after training, read-out: Reversal of the amnesia (% vs controls), as the increase in the Step Down Latency), the change in vivo at 0.1 mg/kg stood at 20%. In addition, the change in vivo at 1 mg/kg in data set [1] (po, 1 mg/kg OS, retest 24 h after training, read-out: Reversal of the amnesia (% vs controls), as the increase in the Step Down Latency) was determined as 40%. For the same compound, in data set [1] (po, 3 mg/kg OS, retest 24 h after training, read-out: Reversal of the amnesia (% vs controls), as the increase in the Step Down Latency), the change in vivo at 3 mg/kg turned out to be 37%. The change in vivo at 10 mg/kg in data set [1] (po, 10 mg/kg OS, retest 24 h after training, read-out: Reversal of the amnesia (% vs controls), as the increase in the Step Down Latency) was 61%. Also, the change in vivo at 30 mg/kg in data set [1] (po, 30 mg/kg OS, retest 24 h after training, read-out: Reversal of the amnesia (% vs controls), as the increase in the Step Down Latency) was determined as 67%. Also, the ED50 in data set [1] (po, OS, 60 min before training, read-out: ID50 (antiamnesic activity, dose inhibiting the amnesic effect of the ECS by 50%)) turned out to be 4.6 mg/kg; in data set [3] (IP, rat, retest 24 h after training, read-out: ID50 (dose antagonizing the amnesic effect of scopolamine by 50%)), 4.7 mg/kg; in data set [4] (IP, read-out: ED50 (dose antagonising immobility time by 50%)), 11.1 mg/kg. Further, the LD50 in data set [2] (IV) turned out to be 290 mg/kg; in data set [2] (po, OS), 1300 mg/kg. In addition, the “% Effect vs controls” value in data set [3] (0.1 mg/kg IP) is reported as 7.1%; in data set [3] (1 mg/kg IP), 38.0%; in data set [3] (10 mg/kg IP), 55.8%. Further, the results for the “Latency (STL)” value in data set [3] (0.1 mg/kg IP), in data set [3] (1 mg/kg IP) and in data set [3] (10 mg/kg IP) were 60.8 s, 72.0 s and 78.6 s, respectively. The “Antagonism of the amnesic effect of scopolamine (in words)” value in data set [3] (rat, IP) is on record as “antagonizes the amnesic effect induced by scopolamine in a dose-dependent manner; also recorded: comparable, in this model, with that of tacrine”. Also, in data set [4] (5 min, 3 mg/kg IP, 5 minutes, read-out: Decrease in immobility (as %) vs the controls), the inhibition in vivo at 3 mg/kg came to 14%. In data set [4] (5 min, 10 mg/kg IP, 5 minutes, read-out: Decrease in immobility (as %) vs the controls), the inhibition in vivo at 10 mg/kg turned out to be 31%. The inhibition in vivo at 30 mg/kg in data set [4] (5 min, 30 mg/kg IP, 5 minutes, read-out: Decrease in immobility (as %) vs the controls) came to 94%. Moreover, the “Antidepressant activity (in words)” value in data set [4] (IP) is listed as “antidepressant effect of the same order of magnitude as the comparison drug used, amitriptyline”.

What is called LD50 is the dose expected to kill half of the subjects tested. Read a low LD50 as a more toxic substance.
